Series [1] deals with T1, BRD4BD2 (Homo sapiens, UniProt O60885). Put plainly: TAMRA-JQ1 displacement fluorescence polarization assay. Type of series: binding.
In the next series the target is BRD4 BD1 (Homo sapiens, UniProt O60885). Put plainly: FITC-JQ1 displacement fluorescence polarization competitive binding assay. The conditions noted are these: read-out: IC50 from competitive binding assay.
In series [2] the target is T2, BRD4BD1 L94V (Homo sapiens, UniProt O60885, L94V). Described as above.
Another series addresses BRD4BD1-EGFP (Homo sapiens, UniProt O60885). Put plainly: Cellular degradation EGFP/mCherry reporter assay (Acumen) in Flp293T cells.
The target of series [3] is T2, BRD4BD1 L94V. Put plainly: TAMRA-JQ1 displacement fluorescence polarization assay. Type of series: binding. The conditions noted are these: 400 nM protein, 10 nM TAMRA-JQ1; N=1. A general note: Polarisation of emitted light reports the rotation of a fluorescent probe.
Series [4] concerns the target T1, BRD4BD2. Put plainly: FITC-JQ1 displacement fluorescence polarization competitive binding assay.
For series [5] the following is noted: in vivo, ip, 10 mg/kg; for AUCINF / AUClast / F / MRTINF / MRTlast: male, C57BL/6, mouse.
For series [6] the following is noted: male, C57BL/6, mouse, in vivo, iv, 2 mg/kg.
In the next series the test system is MOLT4 cells. Put plainly: Whole proteome TMT LC-MS3 mass spectrometry profiling. It counts as cell-based, human. The conditions noted are these: 1 μM compound; for native off target degradation in whole proteome mass spectrometry: ~7,800 quantified proteins incl. BET family. The procedure:
Lysis buffer (8 M Urea, 50 mM NaCl, 50 mM 4-(2hydroxyethyl)-1-piperazineethanesulfonic acid (EPPS) pH 8.5, Protease and Phosphatase inhibitors from Roche®) were added to the cell pellets and homogenized by 20 passes through a 21 gauge (1.25 in. long) needle to achieve a cell lysate with a protein concentration between 1-4 mg mL^−1. A micro-BCA assay (Pierce™) was used to determine the final protein concentration in the cell lysate. 200 μg of protein for each sample were reduced and alkylated as previously described in Donovan et al., Elife 7: e38430 (2018).
Proteins were precipitated using methanol/chloroform. In brief, four volumes of methanol were added to the cell lysate, followed by one volume of chloroform, and finally three volumes of water. The mixture was vortexed and centrifuged to separate the chloroform phase from the aqueous phase. The precipitated protein was washed with three volumes of methanol, centrifuged and the resulting washed precipitated protein was allowed to air dry. Precipitated protein was resuspended in 4 M Urea, 50 mM 2-[4-(2-hydroxyethyl)piperazin-1-yl]ethanesulfonic acid (HEPES) pH 7.4, followed by dilution to 1 M urea with the addition of 200 mM EPPS, pH 8. Proteins were first digested with LysC (1:50; enzyme:protein) for 12 hours at room temperature. The LysC digestion was diluted to 0.5 M Urea with 200 mM EPPS pH 8 followed by digestion with trypsin (1:50; enzyme:protein) for 6 hours at 37° C. Tandem mass tag (TMT) reagents (Thermo Fisher Scientific) were dissolved in anhydrous acetonitrile (ACN) according to manufacturer's instructions. Anhydrous ACN was added to each peptide sample to a final concentration of 30% v/v, and labeling was induced with the addition of TMT reagent to each sample at a ratio of 1:4 peptide:TMT label. The 10-plex labeling reactions were performed for 1.5 hours at room temperature and the reaction quenched by the addition of hydroxylamine to a final concentration of 0.3% for 15 minutes at room temperature.
The sample channels were combined at a 1:1:1:1:1:1:1:1:1:1:1 ratio, desalted using C18 solid phase extraction cartridges (Waters®) and analyzed by LC-MS for channel ratio comparison. Samples were then combined using the adjusted volumes determined in the channel ratio analysis and dried down in a speed vacuum. The combined sample was then resuspended in 1% formic acid, and acidified (pH 2-3) before being subjected to desalting with C18 SPE (Sep-Pak®, Waters®). Samples were then offline fractionated into 96 fractions by high pH reverse-phase HPLC (Agilent LC1260) through an aeris peptide xb-c18 column (Phenomenex®) with mobile phase A containing 5% acetonitrile and 10 mM NH4HCO3 in LC-MS grade H2O, and mobile phase B containing 90% acetonitrile and 10 mM NH4HCO3 in LC-MS grade H2O (both pH 8.0). […]

For a further series, the target named is BRD4BD2-EGFP (Homo sapiens, UniProt O60885). Put plainly: Cellular degradation EGFP/mCherry reporter assay (Acumen) in Flp293T cells. The conditions noted are these: highest tested concentration of 10 μM.
The mark [7] stands for this setting: 50 nM protein, 10 nM TAMRA-JQ1, N=1, read-out: IC50.
The mark [8] stands for this setting: read-out: IC50 from competitive binding assay.
Where [9] appears, read: IC50, wild type BRD4BD2, TAMRA-JQ1 assay.
Setting [10] is: FITC-JQ1 assay, read-out: IC50, wild type BRD4BD2.

Entries after “also recorded” stand apart in the source; their conditions may differ. Read-outs that look alike come from different tables or passages of the source.

With `COc1ccc2c(c1)C(c1ccc(Cl)cc1)=N[C@@H]([C@@H](C)C(=O)NCCCCCCCCCNC(=O)COc1cccc3c1C(=O)N(C1CCC(=O)NC1=O)C3=O)c1nnc(C)n1-2` (stereo partly drawn) [Compound 3, (2R)-2-((4S)-6-(4-chlorophenyl)-8-methoxy-1-methyl-4H-benzo[f][1,2,4]triazolo[4,3-α][1,4]diazepin-4-yl)-N-(9-(2-((2-(2,6-dioxopiperidin-3-yl)-1,3-dioxoisoindolin-4-yl)oxy)acetamido)nonyl)propanamide], the IC50 on BRD4BD2 [1] (setting [7]) was 6.89 µM; on BRD4 BD1, 0.26 ± 0.032 µM; at BRD4BD1 L94V [2] it was 0.063 ± 0.004 µM; at BRD4BD1 L94V [3], 0.0964 µM; on BRD4BD2 [4] (setting [8]) it was 2.24 ± 0.2 µM. The DC50 at BRD4BD1-EGFP (read-out: DC50,6h, BRD4BD1 reporter cell line, 6-hour incubation, ± S.E., N=3) was found to be 1.84 µM.
As for `COc1ccc2c(c1)C(c1ccc(Cl)cc1)=N[C@@H]([C@@H](C)C(=O)NCCOCCNC(=O)COc1cccc3c1C(=O)N(C1CCC(=O)NC1=O)C3=O)c1nnc(C)n1-2` (stereo partly drawn) [Compound 4, (2R)-2-((4S)-6-(4-chlorophenyl)-8-methoxy-1-methyl-4H-benzo[f][1,2,4]triazolo[4,3-α][1,4]diazepin-4-yl)-N-(2-(2-(2-((2-(2,6-dioxopiperidin-3-yl)-1,3-dioxoisoindolin-4-yl)oxy)acetamido)ethoxy)ethyl)propanamide], the IC50 at BRD4BD2 [1] (setting [7]) is 30.6 µM; on BRD4BD2 [1] (setting [9]), 30 µM; at BRD4 BD1 it was 3.13 ± 0.16 µM; at BRD4BD1 L94V [2] it was 0.218 ± 0.019 µM; at BRD4BD1 L94V [3], 0.207 µM; on BRD4BD2 [4] (setting [10]), 7 µM. Moreover, on BRD4BD2 [4] (setting [8]), the IC50 is 6.97 ± 0.3 µM.
In [5], `COc1ccc2c(c1)C(c1ccc(Cl)cc1)=N[C@@H]([C@@H](C)C(=O)NCCOCCOCCNC(=O)COc1cccc3c1C(=O)N(C1CCC(=O)NC1=O)C3=O)c1nnc(C)n1-2` (stereo partly drawn) [Compound 5, (2R)-2-((4S)-6-(4-chlorophenyl)-8-methoxy-1-methyl-4H-benzo[f][1,2,4]triazolo [4,3-α][1,4]diazepin-4-yl)-N-(2-(2-(2-(2-((2-(2,6-dioxopiperidin-3-yl)-1,3-dioxoisoindolin-4-yl)oxy)acetamido)ethoxy)ethoxy)ethyl) propanamide] came in with an AUCINF of 4.30 µM·h, an AUClast of 4.30 µM·h, an F of 54.8% and an MRTINF of 41.4 min. The compound further gave an MRTlast in series [5] of 41.3 min. The IC50 at BRD4BD2 [1] (setting [7]) was found to be 3.89 µM. Moreover, the IC50 at BRD4 BD1 is 2.08 ± 0.14 µM. The compound further gave an IC50 on BRD4BD1 L94V [2] of 0.168 ± 0.018 µM. Besides, in series [6], the AUCINF is 1.57 µM·h, the AUClast amounted to 1.57 µM·h, the C0 came to 9.59 µM and the MRTINF was 12.6 min. Moreover, in series [6], the MRTlast came out at 12.5 min. The “degradation of BRD4BD1 at 1 μM” value on BRD4BD1-EGFP (1 μM concentration) is “no degradation”. In addition, in the series on MOLT4 cells, the “LIMK2 expression in response to treatment” value is listed as “upregulated” and the “native off target degradation in whole proteome mass spectrometry” value was “did not degrade any native BET bromodomains, or any other unrelated off targets; also recorded: no native off target degradation was detected”. Moreover, at BRD4BD1 L94V [3], the IC50 came out at 0.183 µM. For the same compound, the IC50 on BRD4BD2 [4] (setting [8]) is 3.04 ± 0.089 µM.
Consider `COc1ccc2c(c1)C(c1ccc(Cl)cc1)=N[C@@H]([C@@H](C)C(=O)NCCCCCNC(=O)COc1cccc3c1C(=O)N(C1CCC(=O)NC1=O)C3=O)c1nnc(C)n1-2` (stereo partly drawn) [Compound 1, (2R)-2-((4S)-6-(4-chlorophenyl)-8-methoxy-1-methyl-4H-benzo[f][1,2,4]triazolo [4,3-a][1,4]diazepin-4-yl)-N-(5-(2-((2-(2,6-dioxopiperidin-3-yl)-1,3-dioxoisoindolin-4-yl)oxy)acetamido)pentyl)propanamide], for which, in series [5], the AUCINF was 7.21 µM·h, the AUClast was determined as 7.31 µM·h, the F was found to be 77.7% and the MRTINF is 56.6 min. The MRTlast in series [5] came to 56.2 min. For the same compound, in series [5] (mouse), the “time plasma concentration maintained above DC50,6h of 10 nM” value is “approximately 6 h”. The IC50 at BRD4BD2 [1] (setting [7]) was determined as 7.87 µM. Also, on BRD4 BD1, the IC50 turned out to be 1.26 ± 0.06 µM. The same compound registered a 50% inhibitory concentration (IC50) on BRD4BD1 L94V [2] of 0.132 ± 0.01 µM. In [6], this compound registered an AUCINF of 1.88 µM·h, an AUClast of 1.88 µM·h, a C0 of 8.4 µM and an MRTINF of 17.3 min. In addition, the MRTlast in series [6] came to 17 min. In addition, in the series with MOLT4 cells, the “LIMK2 expression in response to treatment” value is reported as “unchanged” and the “native off target degradation in whole proteome mass spectrometry” value is listed as “did not degrade any native BET bromodomains, or any other unrelated off targets; also recorded: no native off target degradation was detected”. For the same compound, the IC50 at BRD4BD1 L94V [3] is 0.125 µM. Also, the IC50 at BRD4BD2 [4] (setting [8]) was found to be 3.5 ± 0.11 µM.
`COc1ccc2c(c1)C(c1ccc(Cl)cc1)=N[C@@H]([C@@H](C)C(=O)NCCCCCCCNC(=O)COc1cccc3c1C(=O)N(C1CCC(=O)NC1=O)C3=O)c1nnc(C)n1-2` (stereo partly drawn) [Compound 2, (2R)-2-((4S)-6-(4-chlorophenyl)-8-methoxy-1-methyl-4H-benzo[f][1,2,4]triazolo[4,3-a][1,4]diazepin-4-yl)-N-(7-(2-((2-(2,6-dioxopiperidin-3-yl)-1,3-dioxoisoindolin-4-yl)oxy)acetamido)heptyl)propanamide]: the half-maximal inhibitory concentration (IC50) on BRD4BD2 [1] (setting [9]) came to 6.4 µM; at BRD4 BD1 it was 0.525 ± 0.039 µM; on BRD4BD1 L94V [2], 0.098 ± 0.006 µM; at BRD4BD1 L94V [3] it was 0.109 µM; at BRD4BD2 [4] (setting [10]) it was 2 µM; at BRD4BD2 [4] (setting [8]), 1.99 ± 0.086 µM. The “degradation of BRD4BD2” value on BRD4BD2-EGFP is reported as “approximately 10%”.

What is called IC50 is the concentration needed to halve the response being measured. The term DC50 denotes the midpoint of the concentration-degradation curve.

These data come from patent US20230234957A1, “PROTEIN TAG TO INDUCE LIGAND DEPENDENT DEGRADATION OF PROTEIN/PROTEIN-FUSIONS” (DANA-FARBER CANCER INSTITUTE, INC., priority 2020, published 2023).
